Counter-ions that a name gives are not always drawn. Marks after values point to notes of the source that are not given here.
What follows are molecules tested on bFGF-induced angiogenesis (assay: rat cornea micropocket method (angiogenesis inhibitory activity)). Conditions: rats with angiogenesis inhibitory activity / rats tested; sample pellet 20 »g; judged after 7 days.
Type: in vivo, Sprague-Dawley rats
Description: The product compound (I) obtained in the examples given below were evaluated for angiogenesis inhibitory activity by the rat cornea micropocket method.
Essentially the method of Gimbrone et al. [J. National Cancer Institute, 52, 413-419 (1974)] was followed. Thus, adult male Sprague-Dawley rats (11 to 16 weeks of age) were anesthetized with nembutal and locally anesthetized by instillation of xylocaine eyedrops onto the eyeball. The cornea was incised to a length of about 2 mm at about 2mm inside from the corneal circumference by means of an injection needle, and a sustained release pellet containing basic fibroblast growth factor (bFGF; bovine brain-derived, purified product; R & D) and a sustained release pellet containing the test sample were inserted side by side into the incision so that the bFGF pellet was located on the central side in the cornea. In the control group, the bFGF pellet and a sample-free pellet were inserted into the cornea. After 7 days and after 10 days, the cornea was observed under a stereoscopic microscope.
The sustained release pellets were prepared in the following manner. An ethylene-vinyl acetate copolymer (Takeda Chemical Industries) was dissolved in dichloromethane to a concentration of 8%. A 3-»l portion of the solution was air-dried on a glass dish, an aqueous solution of bFGF (250 ng) was then placed thereon and air-dried and, finally 3 »l of the above ethylene-vinyl acetate copolymer solution was placed further thereon and air-dried to give a laminate consisting of two copolymer layers and a bFGF layer sandwiched therebetween. This sandwich sheet was made round into a bFGF pellet. The test sample pellets were prepared by dissolving each sample in ethanol in a concentration of 20 »g/2 »l, mixing the solution (2 »l) with 6 »l of an ethylene-vinyl acetate copolymer solution, air-drying the mixed solution on a glass dish and making the thus-obtained sheet round.

Question: How did the Inhibition rate turn out when `CO[C@@H]1[C@H](OCc2ccccc2)CC[C@]2(CO2)[C@H]1[C@@]1(C)O[C@@H]1CC=C(C)C` [Example 17, O-Benzylfumagillol] was run?
Answer: 7/8*

Same assay, conditions: rats with angiogenesis inhibitory activity / rats tested; sample pellet 20 »g; judged after 10 days

Question: With `CO[C@@H]1[C@H](OC(=O)NC(=O)CSc2cccc3ccccc23)CC[C@]2(CO2)[C@H]1[C@@]1(C)O[C@@H]1CC=C(C)C` [Example 54, O-(1-Naphthalenethioacetylcarbamoyl)fumagillol] as the molecule, how does the Inhibition rate read?
Answer: 5/5

Question: For `COC1C(OC(=O)NC(=O)CSc2cnn[nH]2)CCC2(CO2)C1C1(C)OC1CC=C(C)C` (stereo not drawn) [Example 67, O-[(1,2,3-Triazol-5-yl)thioacetylcarbamoyl]fumagillol], which Inhibition rate is on record?
Answer: 5/5

Question: For `CO[C@@H]1[C@H](OCc2ccc(Br)cc2)CC[C@]2(CO2)[C@H]1[C@@]1(C)O[C@@H]1CC=C(C)C` [Example 18, O-(p-Bromobenzyl)fumagillol], which Inhibition rate is on record?
Answer: 7/7

Question: `CO[C@@H]1[C@H](OC(=O)CCC(=O)O)CC[C@]2(CO2)[C@H]1[C@@]1(C)O[C@@H]1CC=C(C)C` [Example 2, Sodium salt of O-(3-carboxypropionyl)fumagillol] was tested. Which Inhibition rate did it give?
Answer: 6/6

Question: For `CO[C@@H]1[C@H](OC(=O)NC(=O)CSc2ccccn2)CC[C@]2(CO2)[C@H]1[C@@]1(C)O[C@@H]1CC=C(C)C` [Example 63, O-[(2-Pyridyl)thioacetylcarbamoyl]fumagillol], which Inhibition rate is on record?
Answer: 6/6

Question: `CO[C@@H]1[C@H](OC(=O)NC(=O)C(Cl)Cl)CC[C@]2(CO2)[C@H]1[C@@]1(C)O[C@@H]1CC=C(C)C` [Example 30, O-Dichloroacetylcarbamoylfumagillol] was tested. Which Inhibition rate did it give?
Answer: 4/8

Question: How did the Inhibition rate turn out when `CO[C@@H]1[C@H](OC(=O)NC(=O)C(Cl)(Cl)Cl)CC[C@]2(CO2)[C@H]1[C@@]1(C)O[C@@H]1CC=C(C)C` [Example 31, O-Trichloroacetylcarbamoylfumagillol] was run?
Answer: 5/6

Question: With `CO[C@@H]1[C@H](OC(=O)NCCCl)CC[C@]2(CO2)[C@H]1[C@@]1(C)O[C@@H]1CC=C(C)C` [Example 34, O-(2-Chloroethylcarbamoyl)fumagillol] as the molecule, how does the Inhibition rate read?
Answer: 4/4

Question: Which Inhibition rate does the source give for `COC1C(OC(=O)NC(=O)NC(=O)c2ccccc2)CCC2(CO2)C1C1(C)OC1CC=C(C)C` (stereo not drawn) [Example 75, O-(N'-Benzoylallophanoyl)fumagillol] here?
Answer: 8/8

Question: Which Inhibition rate does the source give for `CO[C@@H]1[C@H](OC(=O)n2ccnc2)CC[C@]2(CO2)[C@H]1[C@@]1(C)O[C@@H]1CC=C(C)C` [Example 27, O-(1-Imidazolylcarbonyl)fumagillol] here?
Answer: 3/7

Question: With `CO[C@@H]1[C@H](OC(=O)N2CCCCC2)CC[C@]2(CO2)[C@H]1[C@@]1(C)O[C@@H]1CC=C(C)C` [Example 25, O-Piperidinocarbonylfumagillol] as the molecule, how does the Inhibition rate read?
Answer: 6/8

Question: `CO[C@@H]1[C@H](OC(=O)NS(=O)(=O)c2ccc(C)cc2)CC[C@]2(CO2)[C@H]1[C@@]1(C)O[C@@H]1CC=C(C)C` [Example 38, O-(p-Toluenesulfonylcarbamoyl)fumagillol] was tested. Which Inhibition rate did it give?
Answer: 13/15

Question: Which Inhibition rate does the source give for `CO[C@@H]1[C@H](OC(=O)NC(=O)CSc2nnc(C)s2)CC[C@]2(CO2)[C@H]1[C@@]1(C)O[C@@H]1CC=C(C)C` [Example 53, O-[(2-methyl-1,3,4-thiadiazol-5-yl)thioacetylcarbamoyl]fumagillol] here?
Answer: 8/8

Question: Which Inhibition rate does the source give for `CO[C@@H]1[C@H](OC(=O)NC(=O)CSc2cccc3cccnc23)CC[C@]2(CO2)[C@H]1[C@@]1(C)O[C@@H]1CC=C(C)C` [Example 62, O-[(8-Quinolyl)thioacetylcarbamoyl]fumagillol] here?
Answer: 7/7

Question: `CO[C@@H]1[C@H](OS(=O)(=O)c2ccc(C)cc2)CC[C@]2(CO2)[C@H]1[C@@]1(C)O[C@@H]1CC=C(C)C` [Example 20, O-(p-Toluenesulfonyl)fumagillol] was tested. Which Inhibition rate did it give?
Answer: 3/4

Question: For `CO[C@@H]1[C@H](OS(C)(=O)=O)CC[C@]2(CO2)[C@H]1[C@@]1(C)O[C@@H]1CC=C(C)C` [Example 21, O-Methylsulfonylfumagillol], which Inhibition rate is on record?
Answer: 4/4

Question: Which Inhibition rate does the source give for `CO[C@@H]1[C@H](OC(=O)CCCCl)CC[C@]2(CO2)[C@H]1[C@@]1(C)O[C@@H]1CC=C(C)C` [Example 49, O-(4-Chlorobutyryl)fumagillol] here?
Answer: 4/5

Question: How did the Inhibition rate turn out when `CO[C@@H]1[C@H](OC)CC[C@]2(CO2)[C@H]1[C@@]1(C)O[C@@H]1CC=C(C)C` [Example 14, O-Methylfumagillol] was run?
Answer: 4/8

Question: Which Inhibition rate does the source give for `CO[C@@H]1[C@H](OC(=O)NC(=O)c2ccccc2)CC[C@]2(CO2)[C@H]1[C@@]1(C)O[C@@H]1CC=C(C)C` [Example 32, O-Benzoylcarbamoylfumagillol] here?
Answer: 9/12

Question: With `CO[C@@H]1[C@H](OC(=O)NC(=O)CSc2nnnn2CCN(C)C)CC[C@]2(CO2)[C@H]1[C@@]1(C)O[C@@H]1CC=C(C)C` [Example 52, O-[[1-(2-Dimethylaminoethyl)tetrazol]-5-yl-thioacetylcarbamoyl]fumagillol] as the molecule, how does the Inhibition rate read?
Answer: 6/8

Question: Which Inhibition rate does the source give for `CO[C@@H]1[C@H](OC(=O)Oc2ccccc2)CC[C@]2(CO2)[C@H]1[C@@]1(C)O[C@@H]1CC=C(C)C` [Example 22, O-Phenoxycarbonylfumagillol] here?
Answer: 5/8

Question: How did the Inhibition rate turn out when `CO[C@@H]1[C@H](OC(=O)N(CCN(C)C)C(C)=O)CC[C@]2(CO2)[C@H]1[C@@]1(C)O[C@@H]1CC=C(C)C` [Example 57, O-[N-Acetyl-(2-dimethylaminoethylcarbamoyl)]fumagillol] was run?
Answer: 6/6

Question: For `CO[C@@H]1[C@H](OC(=O)Nc2ccc(Cl)cc2)CC[C@]2(CO2)[C@H]1[C@@]1(C)O[C@@H]1CC=C(C)C` [Example 35, O-(p-Chlorophenylcarbamoyl)fumagillol], which Inhibition rate is on record?
Answer: 4/8

Question: How did the Inhibition rate turn out when `CCN(CC)CC(=O)NC(=O)O[C@@H]1CC[C@]2(CO2)[C@@H]([C@@]2(C)O[C@@H]2CC=C(C)C)[C@@H]1OC` [Example 44, O-Diethylaminoacetylcarbamoylfumagillol] was run?
Answer: 7/7

Question: With `CO[C@@H]1[C@H](OC(=O)NCCN(C)C)CC[C@]2(CO2)[C@H]1[C@@]1(C)O[C@@H]1CC=C(C)C` [Example 28, O-(2-Dimethylaminoethylcarbamoyl)fumagillol] as the molecule, how does the Inhibition rate read?
Answer: 11/11

Question: With `CO[C@@H]1[C@H](OC(=O)NC(C)=O)CC[C@]2(CO2)[C@H]1[C@@]1(C)O[C@@H]1CC=C(C)C` [Example 29, O-Acetylcarbamoylfumagillol] as the molecule, how does the Inhibition rate read?
Answer: 7/7

Question: `C=CC(=O)NC(=O)O[C@@H]1CC[C@]2(CO2)[C@@H]([C@@]2(C)O[C@@H]2CC=C(C)C)[C@@H]1OC` [Example 58, O-Acryloylcarbamoylfumagillol] was tested. Which Inhibition rate did it give?
Answer: 6/6

Question: For `CCOC(=O)NC(=O)OC1CCC2(CO2)C(C2(C)OC2CC=C(C)C)C1OC` (stereo not drawn) [Example 70, O-[N-(Ethoxycarbonyl)carbamoyl]fumagillol], which Inhibition rate is on record?
Answer: 5/5

Question: For `CO[C@@H]1[C@H](OC(=O)NN)CC[C@]2(CO2)[C@H]1[C@@]1(C)O[C@@H]1CC=C(C)C` [Example 26, O-Carbazoylfumagillol], which Inhibition rate is on record?
Answer: 6/6

Question: For `CO[C@@H]1[C@H](OCc2cccc3ccccc23)CC[C@]2(CO2)[C@H]1[C@@]1(C)O[C@@H]1CC=C(C)C` [Example 46, O-(1-Naphthylmethyl)fumagillol], which Inhibition rate is on record?
Answer: 7/10

Question: For `CO[C@@H]1[C@H](OC(=O)CCCC(=O)O)CC[C@]2(CO2)[C@H]1[C@@]1(C)O[C@@H]1CC=C(C)C` [Example 4, Sodium salt of O-(4-carboxybutanoyl)fumagillol], which Inhibition rate is on record?
Answer: 6/7

Question: How did the Inhibition rate turn out when `CO[C@@H]1[C@H](OC(=O)Nc2ccc(F)cc2F)CC[C@]2(CO2)[C@H]1[C@@]1(C)O[C@@H]1CC=C(C)C` [Example 37, O-(2,4-Difluorophenylcarbamoyl)fumagillol] was run?
Answer: 11/11

Reference: patent publication EP0357061B1, “Angiogenesis inhibitory agent” (priority 1988, dated 1990)
